Test results taken from US12350364B2, “Lipid body compositions, products made therefrom, methods of making same, and methods of use” (Xylome Corporation, priority 2019, dated 2025).
Each block holds one molecule with its values, some of them ahead of it.

Legend:
Format in all cases: physicochemical
[1] = Lidocaine binding and partitioning into lipid bodies (UV 260 nm after 0.2 μm filtration)
From the text: Lipid bodies were cleared of excipients and antimicrobial preservative by undergoing a 1:10 wash in ethanol followed by rehydration in distilled water.

[2] = Drug loading into lipid-body composition and release into PBS (UV-VIS / HPLC); conditions: for drug released, concentration: 6-fold dilution
[3] = Uptake of hydrophobic dyes by lipid bodies (mixing, centrifugation/flotation); conditions: for uptake of hydrophobic model compound into lipid bodies: about 50% lipid bodies, mixed about 10 minutes, centrifuged
Experimental: In this example, fermentations of different engineered hyper lipogenic Lipomyces starkeyi were used to create lipid bodies. Using the engineered hyper-lipogenic strain XYL-403, compositions of lipid bodies were prepared with a diameter from 6.9+/−1.4 microns when measured under a microscope using a calibrated Petroff Hauser counter. Following the initial preparation of lipid bodies, the lipid bodies were fused using high levels of salt at 1M NaCl, solvents such as ethanol at 20% (v/v) in water, and application of shear force using centrifugation (FIG. 12A). Homogenization, filtration, or chemical treatments can be used as alternatives to or in additional centrifugation to induce shear force. Thus, compositions utilizing even larger lipid bodies (e.g., between 12 to 50 μm) can be developed using physically modified and merged lipid bodies. The advantages of larger lipid bodies can be extended using high total volumes of drug carrying capacity.
This example opens the possibility of even higher volumetric carrying capacity of lipid-body compositions of the invention when expanded to the upper limit of known diameter.
In this example, lipid bodies at about 50% concentration in base composition of example 1A were subjected to the addition of concentrated Nile red, which had been solubilized in DMSO and used in this example as a surrogate for a hydrophobic compound or hydrophobic drug. The lipid-body composition was mixed with Nile red for 10 minutes and centrifuged. After centrifugation, the lipid bodies separate by flotation and all of the Nile red entered into the lipid bodies. The lipid bodies remain hydrophilic on the exterior of the lipid body spheres and continue to feel aqueous.
In another version of this example, lipid bodies at approximately 50% by dry weight were mixed with a second hydrophobic model drug compound, Sudan black. […] Similar to the Nile red results, Sudan black is shown to be taken up by lipid bodies (FIG. 13B).

[4] = 100 μL of 5 mg/mL stock per 1 g lipid bodies, 300 mg in 1 mL PBS, 15 min, room temperature, UV 343 nm
[5] = Example 19: dry powder loading plus 33 μL PBS, UV 350 nm

SMILES: CCN(CC)CC(=O)Nc1c(C)cccc1C [Lidocaine]
Lidocaine in Aqueous Cream Fraction ([1]; 500 μg Lidocaine in Salt (1M NaCl)): 72%
Lidocaine in Aqueous Cream Fraction ([1]; 500 μg Lidocaine in Water): 83%
Lidocaine in Aqueous Cream Fraction ([1]; Control: 500 μg Lidocaine without Lipid Bodies and Filtered): 100%

SMILES: CCCCc1nc(Cl)c(CO)n1Cc1ccc(-c2ccccc2-c2nn[nH]n2)cc1 [Losartan]
Losartan released into 1 mL PBS, concentration ([2]; 100 μL of 5 mg/mL stock per 1 g lipid bodies, 300 mg in 1 mL PBS, HPLC 210 nm, 3.9 minutes): 54.4 µg/mL
total release ([2]; Losartan, 300 mg in 1 mL PBS, HPLC 210 nm): 36.3%

SMILES: CCN(CC)c1ccc2nc3c4ccccc4c(=O)cc-3oc2c1 [Nile red]
uptake of hydrophobic model compound into lipid bodies [3]: quantitatively complete

SMILES: CC1(C)Nc2cccc3c(N=Nc4ccc(N=Nc5ccccc5)c5ccccc45)ccc(c23)N1 [Sudan black]
uptake of hydrophobic model compound into lipid bodies [3]: essentially all of the Sudan black loaded into the lipid bodies
taken up into the lipid bodies ([3]; merged very large lipid bodies (1M NaCl, 20% ethanol, centrifugation)): ~100%

SMILES: COc1cc2c(c(OC)c1OC)-c1ccc(OC)c(=O)cc1[C@@H](NC(C)=O)CC2 [colchicine]
colchicine released ([2]; Example 15: 55% aqueous/45% drug-containing lipid-body composition, 100 μL of 2 mg/mL stock per 1 g lipid body, 300 mg in 1 mL PBS, 15 min, room temperature, UV 350 nm): 5.9 µg/mL
drug release ([2]; Example 15: 55% aqueous/45% drug-containing lipid-body composition, 300 mg in 1 mL PBS, 15 min, room temperature, UV 350 nm): 9.8%
colchicine released ([2]; Example 16: 62% liquid/38% composition, HPLC): 41%
drug released ([2]; Example 16: 62% liquid/38% composition, HPLC (350 nm, 2.9 minutes)): 61.5 µg/mL
released, % of the total colchicine ([2]; Example 16: 62% liquid/38% composition, UV 350 nm): 34.5%
drug released ([2]; Example 16: 62% liquid/38% drug-containing lipid-body composition, 5 mg/mL stock, 200 μL PBS added, 1 mL PBS, room temperature, UV 350 nm): 51.8 µg/mL
released, % of the total compound loaded ([2]; Example 17: 67% liquid/33% composition, UV 350 nm): 15.1%
colchicine released ([2]; Example 17: 67% liquid/33% drug-containing lipid-body composition, 178 μL PBS added, UV 350 nm): 22.6 µg/mL
colchicine released ([2]; Example 18: 30 mg dry powder mixed into 1 g lipid bodies, 300 mg in 2 mL PBS, 15 min, room temperature, UV 350 nm): 3,390 μg/mL
released, % of the total colchicine present ([2]; Example 18: dry powder loading, 50% lipid-body composition, UV 350 nm): 37.6%
colchicine released [2, 5]: 4000 µg/mL
released, % of the total colchicine [2, 5]: 44%

Next, values leading:

Travoprost released ([2]; first procedure: 2 μL of 25 mg/mL per 1 g lipid bodies, 300 mg in 1 mL PBS, HPLC 210 nm): 50%
Travoprost release ([2]; second procedure: 250 μg evaporated concentrate per 1 g lipid bodies, 100 mg in 1 mL PBS, HPLC): 60.7%
SMILES: CC(C)OC(=O)CCC/C=C\C[C@@H]1[C@@H](/C=C/[C@@H](O)COc2cccc(C(F)(F)F)c2)[C@H](O)C[C@@H]1O [Travoprost]

total release [2, 4]: 8.1%
drug released, concentration [2, 4]: 12.1 µg/mL
total release ([2]; Example 21, repeat dilution (1 to 3 then 1 to 2)): 8.1%
SMILES: CCN(CC)CCCC(C)Nc1ccnc2cc(Cl)ccc12 (stereo not drawn) [chloroquine]

total release [2, 4]: 10.4%
drug released, concentration [2, 4]: 5.66 µg/mL
SMILES: CCN(CCO)CCCC(C)Nc1ccnc2cc(Cl)ccc12 (stereo not drawn) [hydroxychloroquine]
